The text below walks through data of patent US5703129A, “5-amino-6-cyclohexyl-4-hydroxy-hexanamide derivatives as inhibitors of β-amyloid protein production” (Bristol-Myers Squibb Company, priority 1996, dated 1997).

The structures appear in SMILES notation. Counter-ions that a name gives are not always drawn.

The test concerns the target T1, γ-Secretase (Homo sapiens, UniProt P49768).
T1 construct: transfected H4 (human neuroglioma) cells stably expressing constructs containing wild-type and mutant forms of β-APP; endogenous in cells; host or cells: H4 human neuroglioma cells, stably transfected with beta-APP (the substrate, not the enzyme)
Kind of test: Inhibition of γ-secretase: ELISA of β-AP made by transfected H4 cells in culture. It is filed as cell-based. The conditions noted are these: H4 (human neuroglioma) cells expressing β-APP (Swedish variant typically), approximately 16 hours incubation, β-AP in conditioned medium by ELISA. The text has this:
Production and detection of β-AP made by cells in culture. The use of transfected H4 (human neuroglioma) cells stably expressing constructs containing wild-type and mutant forms of β-APP have been used to identify inhibitors of β-AP production. The Swedish variant of β-APP produces 5-7 fold more β-AP than the wild type and is typically used due to its enhanced signal. […] The capture antibody is typically a mouse monoclonal (IgG1/kβ-APPa). The antibody recognizes the carboxyl terminal epitope of β-AP. The specificity of the capture antibody ensures measurement of β-AP without interference by other secreted β-APP fragments that share amino acid sequence (β-AP1-16) with β-AP. The detecting antibody is typically an affinity purified rabbit polyclonal antibody, specific for the amino terminus of β-AP. In the cell-based assay conditioned medium from H4 cells is tested by ELISA for the quantity of β-AP present. The cell-based assay can be used to identify compounds that inhibit β-AP production. The assay should detect agents that inhibit cleavage at the β-secretase and/or the γ-secretase cleavage site as well as detecting any agent that interferes with the production and/or release of β-AP.
A typical ELISA-based assay requires plating of the transfected cells at a density sufficient for the rapid detection of the secreted β-AP (experimentally predetermined for a particular stable cell population) in a 96-well format. Cells are plated for at least six hours prior to the introduction of the test compound at which time the growth medium is replaced by fresh medium containing the agent to be tested. Test agents may typically consist of synthetic compounds, secondary metabolites from bacterial or fungal fermentation extracts, or extracts from plant or marine samples. All synthetic agents are initially screened at doses ranging from 10-100 μM or in the case of extracts at sufficient dilution to minimize cytotoxicity. Incubation of the cells with the test agent will continue for approximately 16 hours at which time equal aliquots of media from each sample well is removed and placed into a previously prepared ELISA plate for β-AP quantitation. The ELISA is carried out in a manner described by others (Haass, et al., 1992; Hawlow and Lane, 1988) and the β-AP signal quantitated. Results are obtained by analysis of the ELISA plate following development and comparison to the mock treated cell populations and samples in which known amounts of β-AP were added to construct a standard concentration curve. […] If a compound is found to be active, then a dose response experiment is performed to determine the lowest dose of compound necessary to elicit the inhibition of the production of β-AP.
For `CCCCNC(=O)[C@H](C)C[C@H](O)[C@H](CC1CCCCC1)NCCCC(C)C` (relative stereo) [Example 19, [αS-(αR*,γR*,δR*)]N-Butyl-γ-hydroxy-α-methyl-δ-[(4-methylpentyl)amino]cyclohexanehexanamide hydrochloride], the “Activity Rating (Inhibition of γ-Secretase)” value is reported as “+++ (+++ < = 10)”.

Take `CCCCNC(=O)[C@@H](C[C@H](O)[C@H](CC1CCCCC1)NCCCC(C)C)C(C)C` (relative stereo) [Example 20, [αS-(αR*,γR*,δR*)]N-Butyl-γ-hydroxy-α-(1-methylethyl)-δ-[(4-methylpentyl)amino]cyclohexanehexanamide hydrochloride]: the “Activity Rating (Inhibition of γ-Secretase)” value is given as “+++ (+++ < = 10)”.

For the molecule `C=C(C)C[C@H](C[C@H](O)[C@H](CC1CCCCC1)NCCCC(C)C)C(=O)NCCCC` (relative stereo) [Example 21, [αS-(αR*,γR*,δR*)]N-Butyl-γ-hydroxy-α-(2-methyl-2-propenyl)-δ-[(4-methylpentyl)amino]cyclohexanehexanamide hydrochloride], the “Activity Rating (Inhibition of γ-Secretase)” value was “+++ (+++ < = 10)”.

In the case of `CCCCNC(=O)[C@H](CC(C)C)C[C@H](O)[C@H](CC1CCCCC1)NCCCC(C)C` (relative stereo) [Example 22, [αS-(αR*,γR*,δR*)]N-Butyl-γ-hydroxy-δ-[(4-methylpentyl)amino]-α-(2-methylpropyl)cyclohexanehexanamide hydrochloride], the “Activity Rating (Inhibition of γ-Secretase)” value is recorded as “+++ (+++ < = 10)”.

For `C=CC[C@H](C[C@H](O)[C@H](CC1CCCCC1)NCCCC(C)C)C(=O)NCCCC` (relative stereo) [Example 23, [αS-(αR*,γR*,δR*)]N-Butyl-γ-hydroxy-δ-[(4-methylpentyl)amino]-α-(2-propenyl)cyclohexanehexanamide hydrochloride], the “Activity Rating (Inhibition of γ-Secretase)” value is listed as “+++ (+++ < = 10)”.

As to `CCCCNC(=O)[C@H](Cc1ccccc1)C[C@H](O)[C@H](CC1CCCCC1)NCCCC(C)C` (relative stereo) [Example 25, [αS-(αR*,γR*,δR*)]N-Butyl-γ-hydroxy-δ-[(4-methylpentyl)amino]-α-(phenylmethyl)cyclohexanehexanamide hydrochloride], the “Activity Rating (Inhibition of γ-Secretase)” value was “+++ (+++ < = 10)”.

As to `CCCCNC(=O)[C@H](CC1CCCCC1)C[C@H](O)[C@H](CC1CCCCC1)NCCCC(C)C` (relative stereo) [Example 26, [αS-(αR*,γR*,δR*)]-N-Butyl-α-(cyclohexylmethyl)-γ-hydroxy-δ-[(4-methylpentyl)amino]cyclohexanehexanamide, hydrochloride], the “Activity Rating (Inhibition of γ-Secretase)” value is recorded as “+++ (+++ < = 10)”.

For the molecule `CC(C)CCCN[C@@H](CC1CCCCC1)[C@@H](O)C[C@H](C(=O)N[C@H](C)c1ccccc1)C(C)C` (relative stereo) [Example 28, [αS-(αR*,γR*,δR*,N-(1S*))]γ-hydroxy-α-(1-methylethyl)-δ-[(4-methylpentyl)amino]-N-(1-phenylethyl)cyclohexanehexanamide hydrochloride], the “Activity Rating (Inhibition of γ-Secretase)” value is “+++ (+++ < = 10)”.

Turning to `CC(C)CCCN[C@@H](CC1CCCCC1)[C@@H](O)C[C@H](C(=O)NCCc1ccccc1)C(C)C` (relative stereo) [Example 29, [αS-(αR*,γR*,δR*)]γ-hydroxy-α-(1-methylethyl)-δ-[(4-methylpentyl)amino]-N-(2-phenylethyl)cyclohexanehexanamide hydrochloride], the “Activity Rating (Inhibition of γ-Secretase)” value is reported as “+++ (+++ < = 10)”.

For the molecule `CC(C)CCCN[C@@H](CC1CCCCC1)[C@@H](O)C[C@H](C(=O)NCC(C)C)C(C)C` (relative stereo) [Example 30, [αS-(αR*,γR*,δR*)]γ-hydroxy-α-(1-methylethyl)-δ-[(4-methylpentyl)amino]-N-(2-methylpropyl)cyclohexanehexanamide hydrochloride], the “Activity Rating (Inhibition of γ-Secretase)” value is “+++ (+++ < = 10)”.

Consider `CC(C)CCCN[C@@H](CC1CCCCC1)[C@@H](O)C[C@H](C(=O)NCC(C)(C)C)C(C)C` (relative stereo) [Example 31, [αS-(αR*,γR*,δR*)]N-(2,2-dimethylpropyl)-γ-hydroxy-α-(1-methylethyl)-δ-[(4-methylpentyl)amino]cyclohexanehexanamide hydrochloride], for which the “Activity Rating (Inhibition of γ-Secretase)” value was “+++ (+++ < = 10)”.

For `CSCCCNC(=O)[C@@H](C[C@H](O)[C@H](CC1CCCCC1)NCCCC(C)C)C(C)C` (relative stereo) [Example 32, [αS-(αR*,γR*,δR*)]γ-hydroxy-α-(1-methylethyl)-δ-[(4-methylpentyl)amino]-N-[3-(methylthio)propyl]cyclohexanehexanamide hydrochloride], the “Activity Rating (Inhibition of γ-Secretase)” value is reported as “+++ (+++ < = 10)”.

On to `CCCCNC(=O)[C@@H](C[C@H](O)[C@H](CC1CCCCC1)NCCC(C)CC)C(C)C` (relative stereo) [Example 33, [αS-(αR*,γR*,δR*)]N-Butyl-γ-hydroxy-α-(1-methylethyl)-δ-[(3-methylpentyl)amino]cyclohexanehexanamide hydrochloride], for which the “Activity Rating (Inhibition of γ-Secretase)” value is given as “+++ (+++ < = 10)”.

For the molecule `CCCCNC(=O)[C@@H](C[C@H](O)[C@H](CC1CCCCC1)NCCCCC(C)C)C(C)C` (relative stereo) [Example 34, [αS-(αR*,γR*,δR*)]N-Butyl-γ-hydroxy-α-(1-methylethyl)-δ-[(5-methylhexyl)amino]cyclohexanehexanamide hydrochloride], the “Activity Rating (Inhibition of γ-Secretase)” value was “+++ (+++ < = 10)”.

`CCCCNC(=O)[C@@H](C[C@H](O)[C@H](CC1CCCCC1)NCCC(C)C)C(C)C` (relative stereo) [Example 35, [αS-(αR*,γR*,δR*)]N-Butyl-γ-hydroxy-δ-[(3-methylbutyl)amino]-α-(1-methylethyl)cyclohexanehexanamide hydrochloride]: the “Activity Rating (Inhibition of γ-Secretase)” value is listed as “+++ (+++ < = 10)”.

Turning to `CCCCNC(=O)[C@@H](C[C@H](O)[C@H](CC1CCCCC1)NCc1cccc(C)c1)C(C)C` (relative stereo) [Example 36, [αS-(αR*,γR*,δR*)]N-Butyl-γ-hydroxy-α-(1-methylethyl)-δ-[[(3-methylphenyl)methyl]amino]cyclohexanehexanamidehydrochloride], the “Activity Rating (Inhibition of γ-Secretase)” value is reported as “+++ (+++ < = 10)”.

In the case of `CCCCNC(=O)[C@@H](C[C@H](O)[C@H](CC1CCCCC1)NCc1cccc(OC)c1)C(C)C` (relative stereo) [Example 37, [αS-(αR*,γR*,δR*)]N-Butyl-γ-hydroxy-δ-[[(3-methoxyphenyl)methyl]amino]-α-(1-methylethyl)cyclohexanehexanamide hydrochloride], the “Activity Rating (Inhibition of γ-Secretase)” value is “++ (++ > 10 & < = 25)”.

In the case of `CCCCNC(=O)[C@@H](C[C@H](O)[C@H](CC1CCCCC1)NCc1ccc2ccccc2c1)C(C)C` (relative stereo) [Example 38, [αS-(αR*,γR*,δR*)]N-Butyl-γ-hydroxy-α-(1-methylethyl)-δ-[[(2-naphthyl)methyl]amino]cyclohexanehexanamide hydrochloride], the “Activity Rating (Inhibition of γ-Secretase)” value is reported as “+ (+ > 25 & < = 50 μM)”.

Take `CCCCNC(=O)[C@@H](C[C@H](O)[C@H](CC1CCCCC1)NCCOC(C)C)C(C)C` (relative stereo) [Example 39, [αS-(αR*,γR*,δR*)]N-Butyl-γ-hydroxy-δ-[2-(1-methylethoxy)ethyl]amino]-α-(1-methylethyl)cyclohexanehexanamidehydrochloride]: the “Activity Rating (Inhibition of γ-Secretase)” value is “+ (+ > 25 & < = 50 μM)”.

`CC(C)CNC(=O)[C@@H](C[C@H](O)[C@H](CC1CCCCC1)NC1CCC(C)CC1)C(C)C` (relative stereo) [Example 40, [αS(αR*,γR*,δR*)]-γ-Hydroxy-δ-[(4-methylcyclohexyl)amino]-α-(1-methylethyl)-N-(2-methylpropyl)cyclohexanehexanamide]: the “Activity Rating (Inhibition of γ-Secretase)” value is “+++ (+++ < = 10)”.

Take `CC(C)CCC(C)N[C@@H](CC1CCCCC1)[C@@H](O)C[C@H](C(=O)NCC(C)C)C(C)C` (relative stereo) [Example 41, [αS(αR*,γR*,δR*)]-γ-Hydroxy-δ-[(1,4-dimethylpentyl)amino]-α-(1-methylethyl)-N-(2-methylpropyl)cyclohexanehexanamide hydrochloride]: the “Activity Rating (Inhibition of γ-Secretase)” value was “+++ (+++ < = 10)”.
